Laboratory results as given in patent US20030134859A1 (SANKYO COMPANY, LIMITED, priority 2000, published 2003).
Where a name gives a salt, the structure may show the parent alone.

Legend:
[1] = biological target: T1, human PPAR γ 2 (Homo sapiens, UniProt P37231); assay: PPAR γ transcriptional activity, luciferase reporter, test compound alone; format: cell-based; details: concentration indicating Emax/2, MG63 cells transfected with pSG5-hPPARg and pGV-P2-PPRE, 24 hr
T1 construct: expressed in transfected cells; host or cells: human osteosarcoma MG63, transiently co-transfected with pSG5-hPPARg and the reporter pGV-P2-PPRE
T1 sequence (P37231 1-505): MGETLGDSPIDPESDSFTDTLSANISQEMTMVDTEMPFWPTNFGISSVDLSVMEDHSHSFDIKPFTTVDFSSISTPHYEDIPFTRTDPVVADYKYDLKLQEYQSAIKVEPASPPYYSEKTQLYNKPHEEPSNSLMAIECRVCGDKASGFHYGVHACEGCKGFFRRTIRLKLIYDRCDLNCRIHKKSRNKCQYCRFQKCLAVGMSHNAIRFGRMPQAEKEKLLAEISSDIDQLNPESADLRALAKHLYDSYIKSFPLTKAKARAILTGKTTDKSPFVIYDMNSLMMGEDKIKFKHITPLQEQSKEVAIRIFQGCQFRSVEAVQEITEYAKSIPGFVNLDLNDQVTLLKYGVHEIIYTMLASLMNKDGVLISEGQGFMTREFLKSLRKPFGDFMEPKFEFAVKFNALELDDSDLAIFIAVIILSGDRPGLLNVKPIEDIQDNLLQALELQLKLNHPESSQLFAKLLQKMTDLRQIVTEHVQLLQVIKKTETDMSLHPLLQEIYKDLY
How it was run: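 Human osteosarcoma MG63 cells transiently co-transfected with human PPARγ2 expression plasmid and PPRE-luciferase reporter (rat acyl-CoA oxidase promoter element), then exposed 24 h to test compound alone. Luciferase luminescence gave dose-response curves; EC50 is the concentration giving half of the compound's maximal activity (Emax).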

[2] = biological target: T1, human PPAR γ 2; assay: Inhibitory activity against PPAR γ transcription in the presence of agonist compound A, luciferase reporter; format: cell-based; details: in the presence of 10 nM compound A (agonist); MG63 cells transfected with pSG5-hPPARg and pGV-P2-PPRE; 24 hr

SMILES	EC50 [1] [µM]	IC50 [2] [µM]
Cc1cccc(NC(=O)c2cc([N+](=O)[O-])ccc2Cl)n1 [Example 51, N-(6-Methylpyridin-2-yl)-(2-chloro-5-nitrophenyl)carboxamide]	0.0066	0.12
Nc1ccc(NC(=O)c2cc([N+](=O)[O-])ccc2Cl)cc1 [Example 58, N-(4-Aminophenyl)-(2-chloro-5-nitrophenyl)carboxamide mono-hydrochloride]	0.02	0.0028
O=C(Nc1c(Cl)ncnc1Cl)c1cc([N+](=O)[O-])ccc1Cl [Example 81, N-(4,6-Dichloropyrimidin-5-yl)-(2-chloro-5-nitrophenyl)carboxamide]	0.76	0.023
O=C(Nc1nncs1)c1cc([N+](=O)[O-])ccc1Cl [Example 85, N-(1,3,4-Thiadiazol-2-yl)-(2-chloro-5-nitrophenyl)carboxamide]	0.028	0.091
O=C(Nc1ccc(S(=O)(=O)Nc2nccs2)cc1)c1cc([N+](=O)[O-])ccc1Cl [Example 96, N-[4-(Thiazol-2-yl)aminosulfonyl]phenyl-(2-chloro-5-nitrophenyl)carboxamide]	0.022	0.65
N=C(N)NS(=O)(=O)c1ccc(NC(=O)c2cc([N+](=O)[O-])ccc2Cl)cc1 [Example 106, N-[4-(Amidinoaminosulfonyl)phenyl]-(2-chloro-5-nitrophenyl)carboxamide]	0.049	0.36
O=C(Nc1ccc(S(=O)(=O)Nc2ccnn2-c2ccccc2)cc1)c1cc([N+](=O)[O-])ccc1Cl [Example 108, N-[4-[(2-Phenyl-(2H)-pyrazol-3-yl)aminosulfonyl]phenyl]-(2-chloro-5-nitrophenyl)carboxamide]	0.057	0.059
Cc1ccc(S(=O)(=O)Nc2ccc(NC(=O)c3cc([N+](=O)[O-])ccc3Cl)cc2)cc1 [Example 116, N-[4-(4-Toluenesulfonylamino)phenyl]-(2-chloro-5-nitrophenyl)carboxamide]	0.011	0.055
CC(=O)Nc1ccc(NC(=O)c2cc([N+](=O)[O-])ccc2Cl)cc1 [Example 117, N-(4-Acetylaminophenyl)-(2-chloro-5-nitrophenyl)carboxamide]	0.0087	0.12
O=C(Nc1ccc(NC(=O)c2cc([N+](=O)[O-])ccc2Cl)cc1)c1ccccc1 [Example 119, N-(4-Benzoylaminophenyl)-(2-chloro-5-nitrophenyl)carboxamide]	0.021	0.036
CC(C)(C)c1cc(C(=O)Nc2ccc(NC(=O)c3cc([N+](=O)[O-])ccc3Cl)cc2)cc(C(C)(C)C)c1O [Example 157, N-[4-[(3,5-di-tert-Butyl-4-hydroxybenzoyl)amino]phenyl]-(2-chloro-5-nitrophenyl)carboxamide]	0.76	0.023
CCCNc1ccc(NC(=O)c2cc([N+](=O)[O-])ccc2Cl)cc1 [Example 181, N-[4-(N-Propylamino)phenyl]-(2-chloro-5-nitrophenyl)carboxamide]	0.0056	0.02
CCCN(CC)c1ccc(NC(=O)c2cc([N+](=O)[O-])ccc2Cl)cc1 [Example 189, N-[4-(N-Ethyl-N-propylamino)phenyl]-(2-chloro-5-nitrophenyl)carboxamide]	0.0007	0.0036
O=C(Nc1cccc(O)c1)c1cc([N+](=O)[O-])ccc1Cl [Example 191, N-(3-Hydroxyphenyl)-(2-chloro-5-nitrophenyl)carboxamide]	0.0042	0.03

More lines, in order of falling EC50 [1], values ahead:

EC50 [1] [µM]	IC50 [2] [µM]	SMILES
0.81	0.054	Cc1ccc(-c2nc(NC(=O)c3cc([N+](=O)[O-])ccc3Cl)sc2C)cc1Cl [Example 46, N-[4-(3-Chloro-4-methylphenyl)-5-methylthiazol-2-yl]-(2-chloro-5-nitrophenyl)carboxamide]
0.78	0.056	O=C(Nc1ccc(S(=O)(=O)Nc2ccc(N3CCOCC3)cc2)cc1)c1cc([N+](=O)[O-])ccc1Cl [Example 179, N-[4-[4-(Morpholin-4-yl)phenyl]aminosulfonyl]phenyl-(2-chloro-5-nitrophenyl)carboxamide]
0.61	0.056	CCN(c1ccc(NS(=O)(=O)c2ccc(NC(=O)c3cc([N+](=O)[O-])ccc3Cl)cc2)cc1)C(C)C [Example 232, N-[[4-[4-(N-Ethyl-N-isopropylamino)phenyl]aminosulfonyl]phenyl]-(2-chloro-5-nitrophenyl)carboxamide]
0.42	0.038	Cc1nc(NC(=O)c2cc([N+](=O)[O-])ccc2Cl)sc1C [Example 47]
0.26	0.4	Cn1c(NC(=O)c2cc([N+](=O)[O-])ccc2Cl)nc2ccccc21 [Example 82, N-(1-Methylbenzimidazol-2-yl)-(2-chloro-5-nitrophenyl)carboxamide]
0.13	0.02	CCCCCCN(CCCCCC)c1ccc(NC(=O)c2cc([N+](=O)[O-])ccc2Cl)cc1 [Example 138, N-[4-(N,N-di-n-Hexylamino)phenyl]-(2-chloro-5-nitrophenyl)carboxamide]
0.12	0.13	O=C(Nc1ccc(NC(=S)Nc2cccnc2)cc1)c1cc([N+](=O)[O-])ccc1Cl [Example 257, N-[4-[(Pyridin-3-yl)aminothiocarbonylamino]phenyl]-(2-chloro-5-nitrophenyl)carboxamide]
0.087	0.71	COc1cnc(NS(=O)(=O)c2ccc(NC(=O)c3cc([N+](=O)[O-])ccc3Cl)cc2)nc1 [Example 105, N-[4-[(5-Methoxypyrimidin-2-yl)aminosulfonyl]phenyl]-(2-chloro-5-nitrophenyl)carboxamide]
0.079	0.027	O=C(Nc1nc(-c2ccc(F)c(F)c2)cs1)c1cc([N+](=O)[O-])ccc1Cl [Example 111, N-[4-(3,4-Difluorophenyl)thiazol-2-yl]-(2-chloro-5-nitrophenyl)carboxamide]
0.044	0.052	CC(O)c1cccc(NC(=O)c2cc([N+](=O)[O-])ccc2Cl)c1 (stereo not shown) [Example 239, N-[3-(1-Hydroxyethyl)phenyl]-(2-chloro-5-nitrophenyl)carboxamide]
0.043	0.49	O=C(Nc1ccc(S(=O)(=O)Nc2ccc(Cl)nn2)cc1)c1cc([N+](=O)[O-])ccc1Cl [Example 102, N-[4-[(6-Chloropyridazin-3-yl)aminosulfonyl]phenyl]-(2-chloro-5-nitrophenyl)carboxamide]
0.039	0.04	Cc1ccccc1-c1csc(NC(=O)c2cc([N+](=O)[O-])ccc2Cl)n1 [Example 39, N-[4-(2-Methylphenyl)thiazol-2-yl]-(2-chloro-5-nitrophenyl)carboxamide]
0.034	0.68	Cc1cc(NS(=O)(=O)c2ccc(NC(=O)c3cc([N+](=O)[O-])ccc3Cl)cc2)no1 [Example 99]
0.019	0.24	O=C(Nc1ccc(NC(=O)c2cc([N+](=O)[O-])ccc2Cl)cc1)c1ccncc1 [Example 125, N-[4-(Pyridin-4-ylcarbonylamino)phenyl]-(2-chloro-5-nitrophenyl)carboxamide]
0.016	0.33	O=C(Nc1ccc(S(=O)(=O)Nc2cccnc2)cc1)c1cc([N+](=O)[O-])ccc1Cl [Example 178]
0.015	0.19	O=C(Nc1nnc(-c2ccccc2)s1)c1cc([N+](=O)[O-])ccc1Cl [Example 110, N-(5-Phenyl-[1,3,4]thiadiazol-2-yl)-(2-chloro-5—nitrophenyl)carboxamide]
0.011	0.077	O=C(Nc1nc(-c2cccc3ccccc23)cs1)c1cc([N+](=O)[O-])ccc1Cl [Example 41, N-[4-(1-Naphthyl)thiazol-2-yl]-(2-chloro-5-nitrophenyl)carboxamide]
0.011	0.71	O=C(Nc1cccc2nsnc12)c1cc([N+](=O)[O-])ccc1Cl [Example 86, N-(2,1,3-Benzothiazol-4-yl)-(2-chloro-5-nitrophenyl)carboxamide]
0.011	0.066	CN(C)c1cccc(NC(=O)c2cc([N+](=O)[O-])ccc2Cl)c1 [Example 176, N-(3-Dimethylamino)phenyl-(2-chloro-5-nitrophenyl)carboxamide]
0.0056	0.21	Cc1ccc(NC(=O)c2cc([N+](=O)[O-])ccc2Cl)nc1 [Example 52, N-(5-Methylpyridin-2-yl)-(2-chloro-5-nitrophenyl)carboxamide]
0.0047	0.34	O=C(Nc1ccc2c3c(cccc13)CC2)c1cc([N+](=O)[O-])ccc1Cl [Example 54, N-(Acenaphthen-5-yl)-(2-chloro-5-nitrophenyl)carboxamide]
